40 molecules from US11873298B2, “Compounds and uses thereof” (JANSSEN PHARMACEUTICA NV, priority 2017, dated 2024) can be followed below.

The target of experiment [1] is T1, SCD1 (Homo sapiens, UniProt O00767).
T1 construct: host or cells: S. cerevisiae ole1Δ strain (W303 pdr1Δ pdr3Δ background), plasmid pRS316 with TDH3 promoter and CYC1 terminator
T1 sequence (O00767 1-359): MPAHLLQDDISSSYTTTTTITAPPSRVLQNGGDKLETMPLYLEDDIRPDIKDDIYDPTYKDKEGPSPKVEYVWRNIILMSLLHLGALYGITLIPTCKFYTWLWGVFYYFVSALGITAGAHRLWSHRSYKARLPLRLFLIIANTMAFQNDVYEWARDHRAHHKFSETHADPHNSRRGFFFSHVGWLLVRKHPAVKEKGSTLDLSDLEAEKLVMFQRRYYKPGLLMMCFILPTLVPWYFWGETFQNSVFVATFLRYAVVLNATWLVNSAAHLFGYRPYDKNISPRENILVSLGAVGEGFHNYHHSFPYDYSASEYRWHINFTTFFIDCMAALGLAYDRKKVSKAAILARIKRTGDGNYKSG
The experiment in a line: Growth inhibition of humanized yeast strain expressing SCD1 as sole desaturase. In kind it is cell-based. Summed up:
(§1)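 OD600 growth read-out. ole1Δ yeast, pdr1Δ pdr3Δ, with Ole1/SCD1/SCD5 on a plasmid; SX-Ura media throughout; 2× cell density 0.02 in CSM-Galactose; DMSO compound dilutions; humidified 30° C.; Ole1 stopped at 24 h, SCD1/SCD5 at 40 h.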

For experiment [2], the target named is T2, SCD5 (Homo sapiens, UniProt Q86SK9).
T2 construct: host or cells: S. cerevisiae ole1Δ strain (W303 pdr1Δ pdr3Δ background), plasmid pRS316 with TDH3 promoter and CYC1 terminator
T2 sequence (Q86SK9 1-330): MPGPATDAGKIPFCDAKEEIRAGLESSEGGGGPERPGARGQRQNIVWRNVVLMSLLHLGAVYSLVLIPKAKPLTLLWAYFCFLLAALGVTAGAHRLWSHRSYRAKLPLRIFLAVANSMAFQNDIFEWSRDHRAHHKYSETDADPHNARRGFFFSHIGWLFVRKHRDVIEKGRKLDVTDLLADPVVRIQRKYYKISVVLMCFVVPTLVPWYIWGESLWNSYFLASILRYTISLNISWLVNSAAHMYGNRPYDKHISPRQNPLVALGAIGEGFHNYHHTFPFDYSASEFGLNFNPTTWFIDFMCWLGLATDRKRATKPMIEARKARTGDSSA
The experiment in a line: Growth inhibition of humanized yeast strain expressing SCD5 as sole desaturase. Format: cell-based. Summed up:
as §1

Where [3] appears, read: growth inhibition of humanized yeast strain expressing human SCD1.
[4] abbreviates: growth inhibition of humanized yeast strain expressing human SCD5.

Bounds are passed on as bounds.

The IC50 is the point on the concentration scale where inhibition reaches its midpoint. Higher therefore signals weaker potency. As for `CC(C)(C)OC(=O)N1CCCN(c2noc(-c3ccc4cnn(C5COC5)c4c3)n2)CC1` [Compound 854], the IC50 in experiment [1] (humanized yeast strain, 40 h) amounted to 14.6 µM; in experiment [2] (humanized yeast strain, 40 h), 0.01 µM.

`CC(C)(C)OC(=O)N1CCC(c2cc(-c3cc4c(cn3)cnn4C3COC3)on2)CC1` [Compound 1107]: the IC50 in experiment [1] (humanized yeast strain, 40 h) is over 45 µM; in experiment [2] (humanized yeast strain, 40 h), 0.01 µM.

With `C[C@H]1C[C@@H](c2noc(-c3ccc4cnn(C5COC5)c4c3)n2)CCN1C(=O)OC(C)(C)C` [Compound 1025], the 50% inhibitory concentration (IC50) in experiment [1] (humanized yeast strain, 40 h) was over 45 µM; in experiment [2] (humanized yeast strain, 40 h), 0.01 µM.

With `CC(C)c1noc2ccc(-c3noc(C4CCN(C(=O)C5CCC5)CC4)n3)cc12` [Compound 968], the IC50 is over 45 µM in experiment [1] (humanized yeast strain, 40 h) and 2.83 µM in experiment [2] (humanized yeast strain, 40 h).

As for `CC(C)(C)OC(=O)N1CCC(c2nc(-c3ccc4cnc(C5COC5)n4c3)no2)CC1` [Compound 811], the IC50 in experiment [1] (humanized yeast strain, 40 h) was over 45 µM; in experiment [2] (humanized yeast strain, 40 h), 0.679 µM.

For the molecule `CC(C)n1ncc2ccc(-c3noc(C4CCN(C(=O)C56CC(F)(C5)C6)CC4)n3)cc21` [Compound 756], the half-maximal inhibitory concentration (IC50) in experiment [1] (humanized yeast strain, 40 h) is over 45 µM; in experiment [2] (humanized yeast strain, 40 h) it was 4.36 µM.

In the case of `COC(=O)N1CCN(c2noc(-c3ccc4cnn(C5CS(=O)(=O)C5)c4c3)n2)CC1` [Compound 998], the IC50 is over 45 µM in experiment [1] (humanized yeast strain, 40 h) and 4.13 µM in experiment [2] (humanized yeast strain, 40 h).

`O=C(N1CCC(c2noc(-c3ccnc(NC4COC4)c3)n2)CC1)C1(F)CC1` [Compound 1116]: the IC50 in experiment [1] (humanized yeast strain, 40 h) was over 45 µM; in experiment [2] (humanized yeast strain, 40 h), 1.41 µM.

With `CC(C)n1ncc2ccc(-c3noc(C4(F)CCN(C(=O)OC5(C)CC5)CC4)n3)cc21` [Compound 625], the IC50 in experiment [1] (setting [3]) is over 45 µM; in experiment [2] (setting [4]) it was 0.122 µM.

With `O=C(N1CCC(c2noc(-c3ccnc(C4CCOC4)c3)n2)CC1)C1(F)CC1` (centres unmarked) [Compound 1087], the IC50 in experiment [1] (humanized yeast strain, 40 h) is over 45 µM; in experiment [2] (humanized yeast strain, 40 h) it was 0.041 µM.

Take `CC(C)n1ncc2ccc(-c3noc(C4CCN(Cc5ncco5)CC4)n3)cc21` [Compound 615]: the IC50 amounted to 0.848 µM in experiment [1] (setting [3]) and 1.88 µM in experiment [2] (setting [4]).

On to `O=C(C1CC2(CC2)C1)N1CCC(c2noc(-c3ccc4oc(=O)n(C5COC5)c4c3)n2)CC1` [Compound 1021], for which the 50% inhibitory concentration (IC50) was over 45 µM in experiment [1] (humanized yeast strain, 40 h) and 0.223 µM in experiment [2] (humanized yeast strain, 40 h).

Consider `O=C(N1CCN(c2noc(-c3ccc4cnn(C5COC5)c4c3)n2)CC(F)(F)C1)C1(F)CC1` [Compound 1057], for which the half-maximal inhibitory concentration (IC50) is over 45 µM in experiment [1] (humanized yeast strain, 40 h) and 0.023 µM in experiment [2] (humanized yeast strain, 40 h).

On to `CC(=O)N1CC(n2ncc3ccc(-c4nc(N5CCn6c(Cl)cnc6C5)no4)cc32)C1` [Compound 935], for which the IC50 in experiment [1] (humanized yeast strain, 40 h) was over 45 µM; in experiment [2] (humanized yeast strain, 40 h), over 45 µM.

With `CC(C)(C)OC(=O)N1CC2(CC(c3noc(-c4ccc5cnn(C6COC6)c5c4)n3)C2)C1` [Compound 1020], the half-maximal inhibitory concentration (IC50) in experiment [1] (humanized yeast strain, 40 h) was found to be 14.6 µM; in experiment [2] (humanized yeast strain, 40 h), 0.17 µM.

On to `CC(C)(C)OC(=O)N1CCC(/C(N)=N/OC(=O)c2ccc3cnn(C4COC4)c3c2)CC1` [Compound 1134], for which the 50% inhibitory concentration (IC50) in experiment [1] (humanized yeast strain, 40 h) was over 45 µM; in experiment [2] (humanized yeast strain, 40 h) it was 0.0269 µM.

For the molecule `CC(C)n1ncc2ccc(-c3noc(C4CCN(C(=O)OC(C)(C)C)C=C4F)n3)cc21` (centres unmarked) [Compound 660], the IC50 in experiment [1] (setting [3]) was over 45 µM; in experiment [2] (setting [4]), 14.6 µM.

For the molecule `O=C(c1ccccc1F)N1CCC(c2noc(-c3ccnc(Cl)c3)n2)CC1` [Compound 1132], the IC50 was over 45 µM in experiment [1] (humanized yeast strain, 40 h) and over 45 µM in experiment [2] (humanized yeast strain, 40 h).

As for `COC(=O)N1CCC(c2nc(-c3ccc4cnn(C5CNC5)c4c3)no2)CC1` [Compound 950], the half-maximal inhibitory concentration (IC50) in experiment [1] (humanized yeast strain, 40 h) is over 45 µM; in experiment [2] (humanized yeast strain, 40 h) it was over 45 µM.

Turning to `Cc1nn(C)c2cc(-c3noc(C4CCN(C(=O)CNC(=O)c5ccc(Cl)cn5)CC4(F)F)n3)ccc12` (centres unmarked) [Compound 553], the values for the 50% inhibitory concentration (IC50) in experiment [1] (humanized yeast strain expressing SCD1) and in experiment [2] (humanized yeast strain expressing SCD5) were 5.71 µM and 0.885 µM, respectively.

Consider `CC(C)n1ncc2ccc(-c3noc(C4CCN(C(=O)CC5CC5(F)F)CC4)n3)cc21` (centres unmarked) [Compound 870], for which the IC50 in experiment [1] (humanized yeast strain, 40 h) was over 45 µM; in experiment [2] (humanized yeast strain, 40 h), 4.26 µM.

Take `COC(=O)N1CCN(c2noc(-c3ccnc(OC(CO)CO)c3)n2)CC1` [Compound 1007]: the 50% inhibitory concentration (IC50) was over 45 µM in experiment [1] (humanized yeast strain, 40 h) and over 45 µM in experiment [2] (humanized yeast strain, 40 h).

On to `CC(C)(C)COC(=O)N1CC(c2nc(-c3ccc4cnn(C5COC5)c4c3)no2)C1` [Compound 709], for which the IC50 in experiment [1] (setting [3]) was over 45 µM; in experiment [2] (setting [4]), 4.77 µM.

`CC(C)(C)OC(=O)N1CCC(c2nc(-c3ccc4cnn([C@H]5C[C@](C)(O)C5)c4c3)no2)CC1` [Compound 820]: the IC50 was over 45 µM in experiment [1] (humanized yeast strain, 40 h) and 3.74 µM in experiment [2] (humanized yeast strain, 40 h).

On to `O=C(c1ccccc1F)N1CCC(c2noc(-c3ccnc(C4CCOC4)c3)n2)CC1` (centres unmarked) [Compound 1099], for which the IC50 in experiment [1] (humanized yeast strain, 40 h) was over 45 µM; in experiment [2] (humanized yeast strain, 40 h) it was 1.88 µM.

In the case of `CC(C)(C)CC(=O)N1CCC(c2nc(-c3ccc4cnn(C(=O)C5CCO5)c4c3)no2)CC1` (centres unmarked) [Compound 727], the IC50 in experiment [1] (setting [3]) and in experiment [2] (setting [4]) was over 45 µM throughout.

For `Cc1nn(C)c2cc(-c3nc(C4CCN(C(=O)OC5CCC5)CC4)no3)ccc12` [Compound 923], the IC50 in experiment [1] (humanized yeast strain, 40 h) is over 45 µM; in experiment [2] (humanized yeast strain, 40 h) it was over 45 µM.

Regarding `CC(C)(C)CC(=O)N1CCC(c2nc(-c3ccc4cn[nH]c4c3)no2)CC1` [Compound 732], the results for the concentration for half-maximal inhibition (IC50) in experiment [1] (setting [3]) and in experiment [2] (setting [4]) were over 45 µM and 31.8 µM, respectively.

In the case of `COC(=O)N1CCN(c2noc(-c3ccnc(OC4COC4)c3)n2)CC1` [Compound 1002], the 50% inhibitory concentration (IC50) in experiment [1] (humanized yeast strain, 40 h) is over 45 µM; in experiment [2] (humanized yeast strain, 40 h), 5.05 µM.

As to `CC(C)(C)OC(=O)N1CCCC(c2noc(-c3ccc4cnn(C5COC5)c4c3)n2)CC1` (centres unmarked) [Compound 850], the 50% inhibitory concentration (IC50) in experiment [1] (humanized yeast strain, 40 h) is over 45 µM; in experiment [2] (humanized yeast strain, 40 h), 0.01 µM.

For the molecule `CC(C)n1ncc2ccc(-c3noc(N4CCn5c(Cl)cnc5C4)n3)cc21` [Compound 805], the concentration for half-maximal inhibition (IC50) in experiment [1] (humanized yeast strain, 40 h) was over 45 µM; in experiment [2] (humanized yeast strain, 40 h) it was 9.36 µM.

In the case of `CCC(=O)N1CCC(c2noc(-c3ccc4c(C)nn(C)c4c3)n2)CC1` [Compound 939], the concentration for half-maximal inhibition (IC50) in experiment [1] (humanized yeast strain, 40 h) was over 45 µM; in experiment [2] (humanized yeast strain, 40 h) it was 10.9 µM.

Regarding `O=C(C1CC2(CC2)C1)N1CCN(c2nnc(-c3ccc4cnn(C5COC5)c4c3)o2)CC1` [Compound 993], the IC50 was over 45 µM in experiment [1] (humanized yeast strain, 40 h) and 3.81 µM in experiment [2] (humanized yeast strain, 40 h).

In the case of `CC(C1CC1)n1ncc2ccc(-c3noc(C4CCN(C(=O)OC(C)(C)C)CC4)n3)cc21` (centres unmarked) [Compound 640], the 50% inhibitory concentration (IC50) was over 45 µM in experiment [1] (setting [3]) and 3.98 µM in experiment [2] (setting [4]).

For the molecule `CC(C)n1ncc2ccc(-c3noc([C@H]4CC[C@H](O)CC4)n3)cc21` [Compound 634], the concentration for half-maximal inhibition (IC50) in experiment [1] (setting [3]) was over 45 µM; in experiment [2] (setting [4]), at least 45 µM.

As for `CC(C)c1noc2ccc(-c3noc(C4CCN(C(=O)OC(C)(C)C)CC4)n3)cc12` [Compound 639], the IC50 was over 45 µM in experiment [1] (setting [3]) and 4.79 µM in experiment [2] (setting [4]).

Regarding `CC(C)(C)OC(=O)N1CC(n2ncc3ccc(-c4nc(N5CCn6c(Cl)cnc6C5)no4)cc32)C1` [Compound 925], the concentration for half-maximal inhibition (IC50) in experiment [1] (humanized yeast strain, 40 h) is over 45 µM; in experiment [2] (humanized yeast strain, 40 h), over 45 µM.

Regarding `CC1(OC(=O)N2CCC(c3noc(-c4ccnc(Cl)c4)n3)CC2)CC1` [Compound 1130], the IC50 in experiment [1] (humanized yeast strain, 40 h) was over 45 µM; in experiment [2] (humanized yeast strain, 40 h) it was 9.9 µM.

For the molecule `O=C(C1CCC1)N1CCC(c2noc(-c3ccnc(C4CCOC4)c3)n2)CC1` (centres unmarked) [Compound 1180], the IC50 in experiment [1] (humanized yeast strain, 40 h) was over 45 µM; in experiment [2] (humanized yeast strain, 40 h), 0.06 µM.

With `COC(=O)N1CCC(c2noc(-c3ccc4cnn([C@H]5C[C@@H](O)C5)c4c3)n2)CC1` [Compound 945], the concentration for half-maximal inhibition (IC50) in experiment [1] (humanized yeast strain, 40 h) was over 45 µM; in experiment [2] (humanized yeast strain, 40 h), 5.29 µM.
